Assay results as given in the SangsterLogP compilation.

Experiment: method code SF-AS, from DOI: 10.1002/chin.197535153

Row | logP | Structure (SMILES)
1 | 3.6 | Nc1ccc(C(=O)Oc2ccc(Cl)cc2)c(O)c1
2 | 3.9 | Nc1ccc(C(=O)Oc2cccc(Cl)c2)c(O)c1
3 | 3.29 | Nc1ccc(C(=O)Oc2ccccc2F)c(O)c1
4 | 4.27 | Nc1ccc(C(=O)Oc2ccc(Cl)cc2Cl)c(O)c1
5 | 3.15 | Nc1ccc(C(=O)Oc2ccccc2)c(O)c1
6 | 3.14 | Cc1ccccc1OC(=O)c1ccc(N)cc1O
7 | 3.88 | Cc1cccc(C)c1OC(=O)c1ccc(N)cc1O
8 | 2.88 | COc1ccccc1OC(=O)c1ccc(N)cc1O
9 | 3.07 | COc1ccc(OC(=O)c2ccc(N)cc2O)cc1
10 | 3.72 | Nc1ccc(C(=O)Oc2ccccc2Cl)c(O)c1
11 | 2.08 | Nc1cccc(OC(=O)c2ccc(N)cc2O)c1
12 | 3.46 | Nc1ccc(C(=O)Oc2ccc(Br)cc2)c(O)c1
13 | 2.04 | Nc1ccc(OC(=O)c2ccc(N)cc2O)cc1
14 | 3.42 | Nc1ccc(C(=O)Oc2cccc(F)c2)c(O)c1
15 | 3.64 | Cc1cccc(OC(=O)c2ccc(N)cc2O)c1
16 | 3.25 | COc1cccc(OC(=O)c2ccc(N)cc2O)c1
17 | 3.84 | Nc1ccc(C(=O)Oc2cccc(Br)c2)c(O)c1
18 | 3.61 | Nc1ccc(C(=O)Oc2cccc(C(F)(F)F)c2)c(O)c1
19 | 3.27 | Nc1ccc(C(=O)Oc2ccc(F)cc2)c(O)c1
20 | 3.38 | Cc1ccc(OC(=O)c2ccc(N)cc2O)cc1
21 | 4.21 | CC(C)(C)c1ccccc1OC(=O)c1ccc(N)cc1O
22 | 4.12 | CC(C)c1ccc(OC(=O)c2ccc(N)cc2O)cc1
23 | 4.28 | CC(C)c1ccccc1OC(=O)c1ccc(N)cc1O
24 | 3.74 | Nc1ccc(C(=O)Oc2ccccc2Br)c(O)c1
25 | 0.87 | Nc1ccc(C(=O)O)c(O)c1
